EC50 data for 17 compounds are collected here from patent publication US10941152B2, “Pyrazole compounds as modulators of FSHR and uses thereof” (TOCOPHERX, INC., priority 2014, dated 2021).

One experiment addresses T1, FSHR (Homo sapiens, UniProt P23945).
T1 construct: expressed in transfected cells; host or cells: CHO (Cho-FSHR-LUC-1-1-43)
T1 sequence (P23945 18-695): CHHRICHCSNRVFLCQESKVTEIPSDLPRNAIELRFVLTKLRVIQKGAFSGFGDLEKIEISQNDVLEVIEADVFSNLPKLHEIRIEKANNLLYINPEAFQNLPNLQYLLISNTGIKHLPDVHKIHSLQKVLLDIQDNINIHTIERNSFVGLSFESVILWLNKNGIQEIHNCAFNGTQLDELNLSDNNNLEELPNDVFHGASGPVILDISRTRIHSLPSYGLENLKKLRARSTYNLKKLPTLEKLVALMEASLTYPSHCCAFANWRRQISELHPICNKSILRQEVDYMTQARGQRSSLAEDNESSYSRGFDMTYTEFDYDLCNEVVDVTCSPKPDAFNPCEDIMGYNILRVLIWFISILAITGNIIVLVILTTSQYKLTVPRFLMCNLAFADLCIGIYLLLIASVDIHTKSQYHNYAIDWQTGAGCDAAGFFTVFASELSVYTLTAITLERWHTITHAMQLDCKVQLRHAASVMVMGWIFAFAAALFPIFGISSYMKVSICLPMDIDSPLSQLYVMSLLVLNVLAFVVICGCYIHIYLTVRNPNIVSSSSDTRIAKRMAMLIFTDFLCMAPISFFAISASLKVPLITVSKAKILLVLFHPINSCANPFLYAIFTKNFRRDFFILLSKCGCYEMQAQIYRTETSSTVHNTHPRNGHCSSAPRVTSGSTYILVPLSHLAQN
Nature of the experiment: EC50 of cyclic AMP production in CHO FSHR cells + EC20 FSH (Assay A). Particulars: cyclic AMP production in CHO FSHR cells + EC20 FSH (0.265 pM), HTRF. Type of experiment: cell-based. Summed up:
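cAMP was detected by HTRF as the 665/620 nm ratio. The CHO-FSHR cells had first been exposed for 1 h at 37° C to test compound together with 0.265 pM FSH (EC20) and 200 μM IBMX. Responses are given as percent of the FSH standard maximum.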
(Time-resolved FRET reads energy transfer from a long-lived donor to a nearby acceptor.)

Experiment [1] concerns the target T2, follicle-stimulating hormone (FSH) receptor (Rattus norvegicus, UniProt P20395).
T2 construct: endogenous in cells; host or cells: rat granulosa cells
T2 sequence (P20395 18-692): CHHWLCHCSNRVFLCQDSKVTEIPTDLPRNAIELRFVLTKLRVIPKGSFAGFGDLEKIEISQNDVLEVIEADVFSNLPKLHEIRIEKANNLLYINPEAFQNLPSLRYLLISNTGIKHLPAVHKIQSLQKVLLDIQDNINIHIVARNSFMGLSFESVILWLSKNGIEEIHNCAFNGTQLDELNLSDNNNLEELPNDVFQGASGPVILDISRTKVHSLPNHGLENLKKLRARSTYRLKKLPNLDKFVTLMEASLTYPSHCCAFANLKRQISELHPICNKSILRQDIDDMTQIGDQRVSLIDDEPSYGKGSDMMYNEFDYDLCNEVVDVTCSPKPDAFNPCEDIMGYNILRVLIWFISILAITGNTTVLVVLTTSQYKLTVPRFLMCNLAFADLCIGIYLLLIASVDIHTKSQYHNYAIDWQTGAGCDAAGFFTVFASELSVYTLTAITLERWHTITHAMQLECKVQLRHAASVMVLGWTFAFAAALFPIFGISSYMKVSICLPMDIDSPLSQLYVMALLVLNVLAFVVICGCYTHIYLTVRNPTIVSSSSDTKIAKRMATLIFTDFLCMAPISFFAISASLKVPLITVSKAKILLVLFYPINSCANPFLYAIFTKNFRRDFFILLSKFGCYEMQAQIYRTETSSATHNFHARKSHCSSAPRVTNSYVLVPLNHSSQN
The experiment in a line: Rat granulosa EC50 FSH (Assay B). Type of experiment: cell-based. As to the method:
Example 25. Rat granulosa EC50 FSH (Assay B)
The assay was performed pursuant to the teaching of Yanofsky et al. (2006) Allosteric activation of the follicle-stimulating hormone (FSH) receptor by selective, nonpeptide agonists (JBC 281(19): 13226-13233, which is incorporated by reference in the disclosure of the invention).

One may read the EC50 as the midpoint of the concentration-response curve. `COc1cc2c(cc1-c1cncc(C(N)=O)c1C)-c1c(c(C(=O)N(C)C(C)(C)C)nn1-c1cc(Cl)cc(Cl)c1)CO2` [Compound 116, N-tert-butyl-8-(5-carbamoyl-4-methylpyridin-3-yl)-1-(3,5-dichlorophenyl)-7-methoxy-N-methyl-1,4-dihydrochromeno[4,3-c]pyrazole-3-carboxamide]: the values for the EC50 (on FSHR; in experiment [1]) were under 10 nM and 10 to 100 nM, respectively.

Turning to `COc1cc2c(cc1-c1cccnc1C#N)-c1c(c(C(=O)N(C)C(C)(C)C)nn1-c1cc(Cl)cc(Cl)c1)CO2` [Compound 14, N-tert-butyl-8-(2-cyanopyridin-3-yl)-1-(3,5-dichlorophenyl)-7-methoxy-N-methyl-1,4-dihydrochromeno[4,3-c]pyrazole-3-carboxamide], the figures for the EC50 (on FSHR; in experiment [1]) were under 10 nM and 10 to 100 nM, respectively.

With `COc1cc2c(cc1-c1ccccc1C(N)=O)-c1c(c(C(=O)N(C)C(C)(C)C)nn1-c1cc(Cl)cc(Cl)c1)CO2` [Compound 98, N-tert-butyl-8-(2-carbamoylphenyl)-1-(3,5-dichlorophenyl)-7-methoxy-N-methyl-1,4-dihydrochromeno[4,3-c]pyrazole-3-carboxamide], the EC50 at FSHR is under 10 nM; in experiment [1], 101 to 500 nM.

For `COc1cc2c(cc1-c1cncc(C(N)=O)c1)-c1c(c(C(=O)N(C)C(C)(C)C)nn1-c1cc(Cl)cc(Cl)c1)CO2` [Compound 171], the EC50 (on FSHR; in experiment [1]) was under 10 nM each time.

As to `COc1cc2c(cc1-c1cncc(C(N)=O)c1)-c1c(c(C(=O)N3CCOCC3(C)C)nn1-c1cc(F)cc(F)c1)CO2` [Compound 164], the EC50 (on FSHR; in experiment [1]) was under 10 nM in each case.

Regarding `CONC(=O)c1cncc(-c2cc3c(cc2OC)OCc2c(C(=O)N4CCOCC4(C)C)nn(-c4cc(Cl)cc(Cl)c4)c2-3)c1` [Compound 96, 5-(1-(3,5-dichlorophenyl)-3-(3,3-dimethylmorpholine-4-carbonyl)-7-methoxy-1,4-dihydrochromeno[4,3-c]pyrazol-8-yl)-N-methoxynicotinamide], the EC50 (at FSHR; in experiment [1]) was under 10 nM each time.

In the case of `COc1cc2c(cc1-c1ccn(C)n1)-c1c(c(C(=O)N(CCO)C(C)(C)C)nn1-c1ccsc1)CO2` [Compound 121, N-tert-butyl-N-(2-hydroxyethyl)-7-methoxy-8-(1-methyl-1H-pyrazol-3-yl)-1-(thiophen-3-yl)-1,4-dihydrochromeno[4,3-c]pyrazole-3-carboxamide], the values for the concentration giving a half-maximal response (EC50) (at FSHR; in experiment [1]) were 10 to 100 nM and over 500 nM, respectively.

As for `COc1cc2c(cc1-c1cnn(CC(=O)O)c1)-c1c(c(C(=O)N(C)C(C)(C)C)nn1-c1cc(Cl)cc(Cl)c1)CO2` [Compound 81, 2-(4-(3-(tert-butyl(methyl)carbamoyl)-1-(3,5-dichlorophenyl)-7-methoxy-1,4-dihydrochromeno[4,3-c]pyrazol-8-yl)-1H-pyrazol-1-yl)acetic acid], the values for the EC50 (on FSHR; in experiment [1]) were 10 to 100 nM and 101 to 500 nM, respectively.

For the compound `COc1cc2c(cc1-c1nn(C)cc1Br)-c1c(c(C(=O)N(C)C(C)(C)C)nn1-c1cc(Cl)cc(Cl)c1)CO2` [Compound 148], the EC50 is under 10 nM on FSHR and 10 to 100 nM in experiment [1].

Consider `COc1cc2c(cc1-c1cn(CC(N)=O)nc1C)-c1c(c(C(=O)N(C)C(C)(C)C)nn1-c1cc(Cl)cc(Cl)c1)CO2` [Compound 142], for which the EC50 was under 10 nM at FSHR and 10 to 100 nM in experiment [1].

On to `CNC(=O)c1cncc(-c2cc3c(cc2OC)OCc2c(C(=O)N4CCOCC4(C)C)nn(-c4cc(Cl)cc(Cl)c4)c2-3)c1` [Compound 94, 5-(1-(3,5-dichlorophenyl)-3-(3,3-dimethylmorpholine-4-carbonyl)-7-methoxy-1,4-dihydrochromeno[4,3-c]pyrazol-8-yl)-N-methylnicotinamide], for which the EC50 (on FSHR; in experiment [1]) was under 10 nM throughout.

For the compound `COc1cc2c(cc1-c1cncc(C(N)=O)c1)-c1c(c(C(=O)N3CCOCC3(C)C)nn1-c1cc(Cl)cc(Cl)c1)CO2` [Compound 169], the EC50 was under 10 nM at FSHR and 101 to 500 nM in experiment [1].

Turning to `COc1cc(Cl)cc(-n2nc(C(=O)N(C)C(C)(C)C)c3c2-c2cc(-c4cncc(C(N)=O)c4)c(OC)cc2OC3)c1` [Compound 156], the results for the EC50 (on FSHR; in experiment [1]) were under 10 nM and 10 to 100 nM, respectively.

With `COc1cc2c(cc1-c1cc(C(N)=O)ncc1F)-c1c(c(C(=O)N(C)C(C)(C)C)nn1-c1cc(F)cc(F)c1)CO2` [Compound 70, N-tert-butyl-8-(2-carbamoyl-5-fluoropyridin-4-yl)-1-(3,5-difluorophenyl)-7-methoxy-N-methyl-1,4-dihydrochromeno[4,3-c]pyrazole-3-carboxamide], the EC50 on FSHR is under 10 nM; in experiment [1] it was 10 to 100 nM.

`COc1cc2c(cc1-c1cncc(C(=O)N(C)C)c1)-c1c(c(C(=O)N3CCOCC3(C)C)nn1-c1cc(Cl)cc(Cl)c1)CO2` [Compound 101, 5-(1-(3,5-dichlorophenyl)-3-(3,3-dimethylmorpholine-4-carbonyl)-7-methoxy-1,4-dihydrochromeno[4,3-c]pyrazol-8-yl)-N,N-dimethylnicotinamide]: the EC50 at FSHR was under 10 nM; in experiment [1] it was 10 to 100 nM.

Consider `COc1cc2c(cc1-c1cncc(C)c1)-c1c(c(C(=O)N(C)C(C)(C)C)nn1-c1ccsc1)CO2` [Compound 59, N-tert-butyl-7-methoxy-N-methyl-8-(5-methylpyridin-3-yl)-1-(thiophen-3-yl)-1,4-dihydrochromeno[4,3-c]pyrazole-3-carboxamide], for which the 50% effective concentration (EC50) is 10 to 100 nM at FSHR and over 500 nM in experiment [1].

With `COCC1(CC(F)(F)F)CCCN1C(=O)c1nn(-c2ccsc2)c2c1COc1cc(OC)c(-c3ccn(C)n3)cc1-2` (stereo not shown) [Compound 131, (7-methoxy-8-(1-methyl-1H-pyrazol-3-yl)-1-(thiophen-3-yl)-1,4-dihydrochromeno[4,3-c]pyrazol-3-yl)(2-(methoxymethyl)-2-(2,2,2-trifluoroethyl)pyrrolidin-1-yl)methanone], the EC50 (on FSHR; in experiment [1]) was 10 to 100 nM throughout.
